Results as given in paper PMC4168902 (2014).

Tests used:
[1] = tested on: poly A–poly U (poly rA–poly rU) (RNA, polymer) A/U; assay: UV–vis titration, Scatchard fit; conditions: Na+ (sodium cacodylate, I = 0.05 M); sodium cacodylate pH 7.0, 25 °C; polynucleotide as nucleobases/phosphates; per base
[2] = tested on: poly dAdT–poly dAdT (DNA, polymer) AT; assay: UV thermal melting at 260 nm; conditions: Na+ (sodium cacodylate, I = 0.05 M); sodium cacodylate pH 7.0; r = [compound]/[polynucleotide] = 0.3; per base
[3] = tested on: poly dA–poly dT (DNA, polymer) A/T; assay: UV–vis titration, Scatchard fit; conditions: Na+ (sodium cacodylate, I = 0.05 M); sodium cacodylate pH 7.0, 25 °C; polynucleotide as nucleobases/phosphates; per base
[4] = tested on: poly A–poly U (poly rA–poly rU) (RNA, polymer) A/U; assay: UV thermal melting at 260 nm; conditions: Na+ (sodium cacodylate, I = 0.05 M); sodium cacodylate pH 7.0; r = [compound]/[polynucleotide] = 0.3; per base
[5] = tested on: poly dA–poly dT (DNA, polymer) A/T; assay: UV thermal melting at 260 nm; conditions: Na+ (sodium cacodylate, I = 0.05 M); sodium cacodylate pH 7.0; r = [compound]/[polynucleotide] = 0.3; per base
[6] = tested on: poly dAdT–poly dAdT (DNA, polymer) AT; assay: UV–vis titration, Scatchard fit; conditions: Na+ (sodium cacodylate, I = 0.05 M); sodium cacodylate pH 7.0, 25 °C; polynucleotide as nucleobases/phosphates; per base
[7] = tested on: poly dG–poly dC (DNA, polymer) G/C; assay: UV–vis titration, Scatchard fit; conditions: Na+ (sodium cacodylate, I = 0.05 M); sodium cacodylate pH 7.0, 25 °C; polynucleotide as nucleobases/phosphates; per base

## C[N+](C)(C)CCCOc1ccccc1C(=O)C1=CNc2ccccc2N=CC(C(=O)c2ccccc2OCCCn2cnc3c(N)ncnc32)=CNc2ccccc2N=C1
[1]
  log Ks: 5.8
[2]
  ΔTm: < 2 °C
[3]
  log Ks: 5.9
[4]
  ΔTm: 0 °C
[5]
  ΔTm: 0 °C
[6]
  log Ks: 5.5
[7]
  log Ks: 5.7

## Nc1ncnc2c1ncn2CCCCCCOc1ccccc1C(=O)C1=CNc2ccccc2N=CC(C(=O)c2ccccc2OCCCCCC[n+]2ccccc2)=CNc2ccccc2N=C1
[1]
  log Ks: 5.7
[2]
  ΔTm: 0 °C
[3]
  log Ks: 5.0
[4]
  ΔTm: 0 °C
[5]
  ΔTm: 0 °C
[7]
  log Ks: 5.6

## Nc1ncnc2c1ncn2CCCCCOc1ccccc1C(=O)C1=CNc2ccccc2N=CC(C(=O)c2ccccc2OCCCCC[n+]2ccccc2)=CNc2ccccc2N=C1
[1]
  log Ks: 6.6
[3]
  log Ks: 5.4
[7]
  log Ks: 5.8

## Nc1ncnc2c1ncn2CCCOc1ccccc1C(=O)C1=CNc2ccccc2N=CC(C(=O)c2ccccc2OCCC[n+]2ccccc2)=CNc2ccccc2N=C1
[1]
  log Ks: 6.0
[2]
  ΔTm: < 3 °C
[3]
  log Ks: 6.2
[4]
  ΔTm: 0.5 °C
[5]
  ΔTm: 0.7 °C
[6]
  log Ks: 6.1
[7]
  log Ks: 5.5

## CCCCCCOc1ccccc1C(=O)C1=CNc2ccccc2N=CC(C(=O)c2ccccc2OCCC[n+]2ccccc2)=CNc2ccccc2N=C1
[2]
  ΔTm: 0 °C
[4]
  ΔTm: 0 °C
[5]
  ΔTm: 0 °C
